Data taken from patent publication US20240218022A1, “ANTI-VISTA MACROCYCLIC PEPTIDES AND COMPOSITIONS” (BRISTOL-MYERS SQUIBB COMPANY, priority 2022, published 2024).
Where two headings read alike, the source gives them in different places. One block for each molecule: values may come before it. Starred links: 1 amine or outer side, 2 acyl side, 3 side chain; linkers in the order of their positions; H or OH if unused. Positions of bridges follow the written chain, without caps; N, C: chain ends. Non-standard residues stand in square brackets, D forms with d. Residues, ends and D or L forms follow the SMILES beside them. Phe(3-Me) = Cc1cccc(C[C@H](N)C(=O)O)c1; 2Nal = N[C@@H](Cc1ccc2ccccc2c1)C(=O)O; βAsp = O=C(O)[C@H](CC(=O)[*:2])N[*:1]; Ala(cPr) = N[C@@H](CC1CC1)C(=O)O; Ahp(2) = CCCCC[C@H](N)C(=O)O; NMeNle = CCCC[C@H](NC)C(=O)O; Tle = CC(C)(C)[C@H](N)C(=O)O; NMeS = CN[C@@H](CO)C(=O)O; NHexGly = CCCCCCNCC(=O)O; Orn = NCCC[C@H](N)C(=O)O; Aun = NCCCCCCCCCCC(=O)O; AEEA = NCCOCCOCC(=O)O

Molecular target: T1, mouse VISTA (mVISTA) (Mus musculus, UniProt Q9D659)
T1 construct: expressed in transfected cells; host or cells: Human embryonic kidney 293T cells
T1 sequence (Q9D659 33-308): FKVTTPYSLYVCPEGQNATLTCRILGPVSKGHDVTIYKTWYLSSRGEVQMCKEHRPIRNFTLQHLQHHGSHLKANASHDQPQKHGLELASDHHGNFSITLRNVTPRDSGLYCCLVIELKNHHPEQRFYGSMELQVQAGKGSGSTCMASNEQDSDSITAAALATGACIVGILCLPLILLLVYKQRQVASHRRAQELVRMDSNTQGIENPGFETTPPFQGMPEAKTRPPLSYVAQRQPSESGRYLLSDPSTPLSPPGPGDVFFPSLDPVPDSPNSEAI
Test: Cell-Based Binding High-Content Assay For mVISTA (HC CBA mVISTA)
Settings: cell-based binding high-content assay, mVISTA
Procedure, shortened: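 Read-out: Alexa 647–streptavidin signal imaged on fixed, Hoechst-stained mVISTA-293T cells, with IC50 taken from a four-parameter logistic curve. Compounds competed with 2 nM biotinylated peptide for 30 min at room temperature, tested under both no-wash and wash (1 h compound, media exchange, 1 h) formats.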

[1] = read-out: HC CBA miPr ISTA IC50

SMILES: CCCCCCN1CC(=O)N[C@@H](Cc2ccc(O)cc2)C(=O)N[C@@H](C)C(=O)N[C@@H](CC(N)=O)C(=O)N[C@@H](CCCN)C(=O)N(C)[C@@H](CCCC)C(=O)N[C@@H](CCCCC)C(=O)N2CCC[C@H]2C(=O)N[C@@H](C(C)(C)C)C(=O)N[C@@H](CO)C(=O)N[C@H](C(=O)N[C@@H](CC(=O)NCCOCCOCC(=O)N[C@@H](CC(=O)O)C(=O)NCCOCCOCC(=O)NCCCCCCCCCCC(=O)O)C(=O)O)CSCC(=O)N[C@@H](Cc2ccccc2)C(=O)N[C@@H](Cc2ccc(O)cc2)C(=O)N[C@@H](CC(=O)O)C1=O [compound 2061] ({CH2CO}-FYD[NHexGly]YAN[Orn][NMeNle][Ahp(2)]P[Tle]SC[βAsp][AEEA]D[AEEA][Aun]-OH; thioether N-14)
IC50 [1]: 21.5 nM

SMILES: CCCCCCN1CC(=O)N[C@@H](Cc2ccc(O)cc2)C(=O)N[C@@H](CC2CC2)C(=O)N[C@@H](CC(N)=O)C(=O)N[C@@H](CCCN)C(=O)N(C)[C@@H](CCCC)C(=O)N[C@@H](CCCCC)C(=O)N2CCC[C@H]2C(=O)N[C@@H](C(C)(C)C)C(=O)N[C@@H](CO)C(=O)N[C@H](C(=O)N[C@@H](CC(=O)NCCOCCOCC(=O)N[C@@H](CC(=O)O)C(=O)NCCOCCOCC(=O)NCCCCCCCCCCC(=O)O)C(=O)O)CSCC(=O)N[C@@H](Cc2ccccc2)C(=O)N[C@@H](Cc2ccc(O)cc2)C(=O)N[C@@H](CC(=O)O)C1=O [compound 2062] ({CH2CO}-FYD[NHexGly]Y[Ala(cPr)]N[Orn][NMeNle][Ahp(2)]P[Tle]SC[βAsp][AEEA]D[AEEA][Aun]-OH; thioether N-14)
IC50 [1]: 49.2 nM

SMILES: CCCCCCN1CC(=O)N[C@@H](Cc2ccc(O)cc2)C(=O)N[C@@H](CC(C)C)C(=O)N[C@@H](CC(=O)O)C(=O)N[C@@H](CCCNC(=N)N)C(=O)N(C)[C@@H](CO)C(=O)N[C@@H](CCCCC)C(=O)N2CCC[C@H]2C(=O)N[C@@H](C(C)(C)C)C(=O)N[C@@H](CC(N)=O)C(=O)N[C@H](C(=O)N[C@@H](CC(=O)NCCOCCOCC(=O)N[C@@H](CC(=O)O)C(=O)NCCOCCOCC(=O)NCCCCCCCCCCC(=O)O)C(=O)O)CSCC(=O)N[C@@H](Cc2ccccc2)C(=O)N[C@@H](Cc2c[nH]c3ccccc23)C(=O)N[C@@H](CC(=O)O)C1=O [compound 2066] ({CH2CO}-FWD[NHexGly]YLDR[NMeS][Ahp(2)]P[Tle]NC[βAsp][AEEA]D[AEEA][Aun]-OH; thioether N-14)
IC50 [1]: 35.3 nM

SMILES: CCCCCCN1CC(=O)N[C@@H](Cc2ccc(O)cc2)C(=O)N[C@@H](CC(C)C)C(=O)N[C@@H](CC(N)=O)C(=O)N[C@@H](CCCNC(=N)N)C(=O)N(C)[C@@H](CO)C(=O)N[C@@H](CCCCC)C(=O)N2CCC[C@H]2C(=O)N[C@@H](C(C)(C)C)C(=O)N[C@@H](CC(=O)O)C(=O)N[C@H](C(=O)N[C@@H](CC(=O)NCCOCCOCC(=O)N[C@@H](CC(=O)O)C(=O)NCCOCCOCC(=O)NCCCCCCCCCCC(=O)O)C(=O)O)CSCC(=O)N[C@@H](Cc2ccccc2)C(=O)N[C@@H](Cc2cccc(C)c2)C(=O)N[C@@H](CC(=O)O)C1=O [compound 2069] ({CH2CO}-F[Phe(3-Me)]D[NHexGly]YLNR[NMeS][Ahp(2)]P[Tle]DC[βAsp][AEEA]D[AEEA][Aun]-OH; thioether N-14)
IC50 (read-out: HC CBA miPrISTA IC50): 45 nM

SMILES: CCCCCCN1CC(=O)N[C@@H](Cc2ccc(O)cc2)C(=O)N[C@@H](CC(C)C)C(=O)N[C@@H](CC(N)=O)C(=O)N[C@@H](CCCNC(=N)N)C(=O)N(C)[C@@H](CO)C(=O)N[C@@H](CCCCC)C(=O)N2CCC[C@H]2C(=O)N[C@@H](C(C)(C)C)C(=O)N[C@@H](CC(=O)O)C(=O)N[C@H](C(=O)N[C@@H](CC(=O)NCCOCCOCC(=O)N[C@@H](CC(=O)O)C(=O)NCCOCCOCC(=O)NCCCCCCCCCCC(=O)O)C(=O)O)CSCC(=O)N[C@@H](Cc2ccc3ccccc3c2)C(=O)N[C@@H](Cc2ccc(O)cc2)C(=O)N[C@@H](CC(=O)O)C1=O [compound 2070] ({CH2CO}-[2Nal]YD[NHexGly]YLNR[NMeS][Ahp(2)]P[Tle]DC[βAsp][AEEA]D[AEEA][Aun]-OH; thioether N-14)
IC50 (read-out: HC CBA miPrISTA IC50): 41.6 nM

SMILES: CCCCCCN1CC(=O)N[C@@H](Cc2ccc(O)cc2)C(=O)N[C@@H](CC(C)C)C(=O)N[C@@H](CC(N)=O)C(=O)N[C@@H](CCCNC(=N)N)C(=O)N(C)[C@@H](CCCC)C(=O)N[C@@H](CCCCC)C(=O)N2CCC[C@H]2C(=O)N[C@@H](C(C)(C)C)C(=O)N[C@@H](C(C)C)C(=O)N[C@H](C(=O)N[C@@H](CC(=O)NCCOCCOCC(=O)N[C@@H](CC(=O)O)C(=O)NCCOCCOCC(=O)NCCCCCCCCCCC(=O)O)C(=O)O)CSCC(=O)N[C@@H](Cc2ccccc2)C(=O)N[C@@H](Cc2cccc(C)c2)C(=O)N[C@@H](CC(=O)O)C1=O [compound 2073] ({CH2CO}-F[Phe(3-Me)]D[NHexGly]YLNR[NMeNle][Ahp(2)]P[Tle]VC[βAsp][AEEA]D[AEEA][Aun]-OH; thioether N-14)
IC50 (read-out: HC CBA miPrISTA IC50): 33.4 nM

SMILES: CCCCCCN1CC(=O)N[C@@H](Cc2ccc(O)cc2)C(=O)N[C@@H](CC(C)C)C(=O)N[C@@H](CC(N)=O)C(=O)N[C@@H](CCCN)C(=O)N(C)[C@@H](CCCC)C(=O)N[C@@H](CCCCC)C(=O)N2CCC[C@H]2C(=O)N[C@@H](C(C)(C)C)C(=O)N[C@@H](CC(=O)O)C(=O)N[C@H](C(=O)N[C@@H](CC(=O)NCCOCCOCC(=O)N[C@@H](CC(=O)O)C(=O)NCCOCCOCC(=O)NCCCCCCCCCCC(=O)O)C(=O)O)CSCC(=O)N[C@@H](Cc2ccccc2)C(=O)N[C@@H](Cc2cccc(C)c2)C(=O)N[C@@H](CC(=O)O)C1=O [compound 2074] ({CH2CO}-F[Phe(3-Me)]D[NHexGly]YLN[Orn][NMeNle][Ahp(2)]P[Tle]DC[βAsp][AEEA]D[AEEA][Aun]-OH; thioether N-14)
IC50 (read-out: HC CBA miPrISTA IC50): 40 nM

SMILES: CCCCCCN1CC(=O)N[C@@H](Cc2ccc(O)cc2)C(=O)N[C@@H](CC(C)C)C(=O)N[C@@H](CC(N)=O)C(=O)N[C@@H](CCCNC(=N)N)C(=O)N(C)[C@@H](CCCC)C(=O)N[C@@H](CCCCC)C(=O)N2CCC[C@H]2C(=O)N[C@@H](C(C)(C)C)C(=O)N[C@@H](CO)C(=O)N[C@H](C(=O)N[C@@H](CC(=O)NCCOCCOCC(=O)N[C@@H](CC(=O)O)C(=O)NCCOCCOCC(=O)NCCCCCCCCCCC(=O)O)C(=O)O)CSCC(=O)N[C@@H](Cc2ccccc2)C(=O)N[C@@H](Cc2cccc(C)c2)C(=O)N[C@@H](CC(=O)O)C1=O [compound 2076] ({CH2CO}-F[Phe(3-Me)]D[NHexGly]YLNR[NMeNle][Ahp(2)]P[Tle]SC[βAsp][AEEA]D[AEEA][Aun]-OH; thioether N-14)
IC50 (read-out: HC CBA miPrISTA IC50): 38.1 nM

The remaining lines, values ahead:

IC50 (read-out: HC CBA miPrISTA IC50): 29.9 nM
SMILES: CCCCCCN1CC(=O)N[C@@H](Cc2ccc(O)cc2)C(=O)N[C@@H](CC(C)C)C(=O)N[C@@H](CC(N)=O)C(=O)N[C@@H](CCCNC(=N)N)C(=O)N(C)[C@@H](CO)C(=O)N[C@@H](CCCCC)C(=O)N2CCC[C@H]2C(=O)N[C@@H](C(C)(C)C)C(=O)N[C@@H](CO)C(=O)N[C@H](C(=O)N[C@@H](CC(=O)NCCOCCOCC(=O)N[C@@H](CC(=O)O)C(=O)NCCOCCOCC(=O)NCCCCCCCCCCC(=O)O)C(=O)O)CSCC(=O)N[C@@H](Cc2ccccc2)C(=O)N[C@@H](Cc2ccc(O)cc2)C(=O)N[C@@H](CC(=O)O)C1=O [compound 2068] ({CH2CO}-FYD[NHexGly]YLNR[NMeS][Ahp(2)]P[Tle]SC[βAsp][AEEA]D[AEEA][Aun]-OH; thioether N-14)

IC50 (read-out: HC CBA miPrISTA IC50): 27.8 nM
SMILES: CCCCCCN1CC(=O)N[C@@H](Cc2ccc(O)cc2)C(=O)N[C@@H](CC(C)C)C(=O)N[C@@H](CC(N)=O)C(=O)N[C@@H](CCCNC(=N)N)C(=O)N(C)[C@@H](CO)C(=O)N[C@@H](CCCCC)C(=O)N2CCC[C@H]2C(=O)N[C@@H](C(C)(C)C)C(=O)N[C@@H](CC(=O)O)C(=O)N[C@H](C(=O)N[C@@H](CC(=O)NCCOCCOCC(=O)N[C@@H](CC(=O)O)C(=O)NCCOCCOCC(=O)NCCCCCCCCCCC(=O)O)C(=O)O)CSCC(=O)N[C@@H](Cc2cccc(C)c2)C(=O)N[C@@H](Cc2ccc(O)cc2)C(=O)N[C@@H](CC(=O)O)C1=O [compound 2071] ({CH2CO}-[Phe(3-Me)]YD[NHexGly]YLNR[NMeS][Ahp(2)]P[Tle]DC[βAsp][AEEA]D[AEEA][Aun]-OH; thioether N-14)

IC50 (read-out: HC CBA miPrISTA IC50): 21.1 nM
SMILES: CCCCCCN1CC(=O)N[C@@H](Cc2ccc(O)cc2)C(=O)N[C@@H](CC(C)C)C(=O)N[C@@H](CC(N)=O)C(=O)N[C@@H](CCCN)C(=O)N(C)[C@@H](CCCC)C(=O)N[C@@H](CCCCC)C(=O)N2CCC[C@H]2C(=O)N[C@@H](C(C)(C)C)C(=O)N[C@@H](C(C)C)C(=O)N[C@H](C(=O)N[C@@H](CC(=O)NCCOCCOCC(=O)N[C@@H](CC(=O)O)C(=O)NCCOCCOCC(=O)NCCCCCCCCCCC(=O)O)C(=O)O)CSCC(=O)N[C@@H](Cc2ccccc2)C(=O)N[C@@H](Cc2cccc(C)c2)C(=O)N[C@@H](CC(=O)O)C1=O [compound 2072] ({CH2CO}-F[Phe(3-Me)]D[NHexGly]YLN[Orn][NMeNle][Ahp(2)]P[Tle]VC[βAsp][AEEA]D[AEEA][Aun]-OH; thioether N-14)

IC50 (read-out: HC CBA miPrISTA IC50): 24.1 nM
SMILES: CCCCCCN1CC(=O)N[C@@H](Cc2ccc(O)cc2)C(=O)N[C@@H](CC(C)C)C(=O)N[C@@H](CC(N)=O)C(=O)N[C@@H](CCCNC(=N)N)C(=O)N(C)[C@@H](CCCC)C(=O)N[C@@H](CCCCC)C(=O)N2CCC[C@H]2C(=O)N[C@@H](C(C)(C)C)C(=O)N[C@@H](CC(=O)O)C(=O)N[C@H](C(=O)N[C@@H](CC(=O)NCCOCCOCC(=O)N[C@@H](CC(=O)O)C(=O)NCCOCCOCC(=O)NCCCCCCCCCCC(=O)O)C(=O)O)CSCC(=O)N[C@@H](Cc2ccccc2)C(=O)N[C@@H](Cc2cccc(C)c2)C(=O)N[C@@H](CC(=O)O)C1=O [compound 2075] ({CH2CO}-F[Phe(3-Me)]D[NHexGly]YLNR[NMeNle][Ahp(2)]P[Tle]DC[βAsp][AEEA]D[AEEA][Aun]-OH; thioether N-14)
